Source: patent publication US12139487B2, “Compounds and uses thereof” (Foghorn Therapeutics Inc., priority 2022, dated 2024)

System: BRM-dependent transcription (BRG1 mutant lung cancer cell line A549)
Assay: BRM-dependent transcription, MMTV luciferase reporter in BRG1 mutant A549 cells
Assay type: cell-based
Settings: Table 11; for IC50: Homo sapiens, A549, 6 h, A549-MMTV luciferase reporter, dexamethasone induced, 6 hours; for Ratio (MDA-MMTV IC50 (μM) divided by A549-MMTV IC50 (μM)): MMTV luciferase reporter cell lines, selectivity BRG1/BRM
Protocol: The potential inhibitory effects of compounds on BRG1 and BRM dependent transcription was study by testing the activity of against the BRG1 mutant lung cancer cell line A549 and a MDA cell line with BRM removed by CRISPR. Both cell lines were genetically engineered with a BRG1 or BRM-dependent mouse mammary tumor virus luciferase reporter. Luciferase transcription was induced by dexamethasone in the presence of compound at different concentrations and luminescence was measured using a plate reader 6 hours after stimulation.

IC50 [nM] | Ratio (MDA-MMTV IC50 (μM) divided by A549-MMTV IC50 (μM)) | Structure (SMILES)
8.6 | 24.27 | O=C(NCc1cc2nc(-c3ccc([C@H](F)CF)c(C4CC4)n3)ccc2cn1)c1cc(F)c2c(c1)S(=O)(=O)[C@@H](F)CCO2 [Compound 411]
11.9 | 21.10 | COCCOc1cnc2c(c1)CCCN2c1ccc2cnc(CNC(=O)c3cc(Cl)c4c(c3)S(=O)(=O)[C@@H](F)COC4)cc2n1 [Compound 412]
6.2 | 27.54 | Cc1cc(C(=O)NCc2cc3nc(-c4ccc(OC(F)F)c(C5CC5)n4)ccc3cn2)cc2c1COC[C@H](F)S2(=O)=O [Compound 413]
15.1 | 22.34 | COCCOc1cnc2c(c1)OCCN2c1ccc2cnc(CNC(=O)c3cc(Cl)c4c(c3)S(=O)(=O)[C@@H](F)CCO4)cc2n1 [Compound 414]
7.6 | 35.99 | O=C(NCc1cc2nc(-c3ccc(OC(F)F)c(C4CC4)n3)ccc2cn1)c1cc(C(F)F)c2c(c1)S(=O)(=O)[C@@H](F)COC2 [Compound 415]
19.9 | 50.12 | CCOc1ccc(-c2ccc3cnc(CNC(=O)c4cc(C(F)F)c5c(c4)S(=O)(=O)[C@@H](F)COC5)cc3n2)nc1C1CC1(F)F (stereo partly shown) [Compound 416]
27.5 | 39.11 | O=C(NCc1cc2nc(-c3cccc(C4CC4)n3)ccc2cn1)c1cc(Br)c2c(c1)S(=O)(=O)[C@@H](F)COC2 [Compound 417]
23.9 | 52.60 | [2H]C1([2H])Oc2c(Cl)cc(C(=O)NCc3cc4nc(-c5cccc(OC(F)F)n5)ccc4cn3)cc2S(=O)(=O)[C@@H](F)C1([2H])[2H] [Compound 418]
17.4 | 28.69 | [2H]C1([2H])Oc2c(Cl)cc(C(=O)NCc3cc4nc(-c5ccc(OC(F)F)c(C6CC6)n5)ccc4cn3)cc2S(=O)(=O)[C@@H](F)C1([2H])[2H] [Compound 419]
25.7 | 24.69 | O=C(NCc1cc2nc(-c3ccnc(C4CC4(F)F)n3)ccc2cn1)c1cc(Cl)c2c(c1)S(=O)(=O)[C@@H](F)COC2 (stereo partly shown) [Compound 420]
8 | 23.62 | [2H]C([2H])([2H])C([2H])([2H])Oc1nc([C@H](C)F)ccc1-c1ccc2cnc(CNC(=O)c3cc(F)c4c(c3)S(=O)(=O)[C@@H](F)CCO4)cc2n1 [Compound 421]
24.4 | 23.20 | COCc1ccc(-c2ccc3cnc(CNC(=O)c4cc(Cl)c5c(c4)S(=O)(=O)[C@@H](F)COC5)cc3n2)nc1C1CC1 [Compound 422]
10.4 | 32.08 | CCOc1nc([C@@H](F)CF)ccc1-c1ccc2cnc(CNC(=O)c3cc(Cl)c4c(c3)S(=O)(=O)[C@@H](F)CCO4)cc2n1 [Compound 423]
23.7 | 31.82 | COCCOc1cnc2c(c1)OCCN2c1ccc2cnc(CNC(=O)c3cc(Br)c4c(c3)S(=O)(=O)[C@@H](F)CCO4)cc2n1 [Compound 424]
2.3 | 24.38 | O=C(NCc1cc2nc(N3CCC(F)(F)c4cc(C5CC5)cnc43)ccc2cn1)c1cc(F)c2c(c1)S(=O)(=O)[C@@H](F)CCO2 [Compound 425]
10.2 | 25.72 | COCCOc1cnc2c(c1)OCCN2c1ccc2cnc(CNC(=O)c3cc(Br)c4c(c3)S(=O)(=O)[C@@H](F)COC4)cc2n1 [Compound 426]

IC50 [nM] | Ratio (MDA-MMTV IC50 (μM) divided by A549-MMTV IC50 (μM)) | Structure (SMILES)
20.6 | 32.84 | COCCOc1cnc2c(c1)CCCN2c1ccc2cnc(CNC(=O)c3cc(Br)c4c(c3)S(=O)(=O)[C@@H](F)COC4)cc2n1 [Compound 427]
20.3 | 26.26 | O=C(NCc1cc2nc(-c3ccc(OCCO)c(C4CC4)n3)ccc2cn1)c1cc(Cl)c2c(c1)S(=O)(=O)[C@@H](F)COC2 [Compound 428]
16.9 | 32.94 | O=C(NCc1cc2nc(-c3cccc(C4CC4)n3)ccc2cn1)c1cc(C(F)F)c2c(c1)S(=O)(=O)[C@@H](F)COC2 [Compound 429]
8.1 | 40.24 | CCOc1nc(C(F)F)ccc1-c1ccc2cnc(CNC(=O)c3cc(C(F)F)c4c(c3)S(=O)(=O)[C@@H](F)COC4)cc2n1 [Compound 430]
9.5 | 31.77 | CCOc1nc(C(F)F)ccc1-c1ccc2cnc(CNC(=O)c3cc(Cl)c4c(c3)S(=O)(=O)[C@@H](F)COC4)cc2n1 [Compound 431]
13 | 25.93 | COCCc1ccc2c(n1)N(c1ccc3cnc(CNC(=O)c4cc(F)c5c(c4)S(=O)(=O)[C@@H](F)CCO5)cc3n1)CCO2 [Compound 432]
3 | 27.74 | [2H]C([2H])([2H])c1cc(C(=O)NCc2cc3nc(-c4cccc(N5C[C@@H](C)O[C@@H](C)C5)n4)ccc3cn2)cc2c1OCC[C@H](F)S2(=O)=O [Compound 433]
8.7 | 41.19 | COc1ccc(-c2ccc3cnc(CNC(=O)c4cc(C(F)F)c5c(c4)S(=O)(=O)[C@@H](F)COC5)cc3n2)nc1C1CC1(F)F (stereo partly shown) [Compound 434]
23 | 25.82 | O=C(NCc1cc2nc(N3CCOc4ccc(C(F)F)nc43)ccc2cn1)c1cc(Br)c2c(c1)S(=O)(=O)[C@@H](F)CCO2 [Compound 435]
13.1 | 43.58 | CCOc1nc(C(F)F)ccc1-c1ccc2cnc(CNC(=O)c3cc(Br)c4c(c3)S(=O)(=O)[C@@H](F)COC4)cc2n1 [Compound 436]
5.8 | 35.93 | COCCOc1cnc2c(c1)OCCN2c1ccc2cnc(CNC(=O)c3cc(C(F)F)c4c(c3)S(=O)(=O)[C@@H](F)COC4)cc2n1 [Compound 437]
13.3 | 27.20 | COCCOc1cnc2c(c1)CCCN2c1ccc2cnc(CNC(=O)c3cc(C(F)F)c4c(c3)S(=O)(=O)[C@@H](F)COC4)cc2n1 [Compound 439]
16.1 | 53.01 | [2H]C([2H])([2H])C([2H])([2H])Oc1ccc(-c2ccc3cnc(CNC(=O)c4cc(C(F)F)c5c(c4)S(=O)(=O)[C@@H](F)COC5)cc3n2)nc1C1CC1(F)F (stereo partly shown) [Compound 440]
8.9 | 21.14 | O=C(NCc1cc2nc(-c3ccc(C(F)F)c(N4CC(F)C4)n3)ccc2cn1)c1cc(F)c2c(c1)S(=O)(=O)[C@@H](F)CCO2 [Compound 441]
8.5 | 25.83 | O=C(NCc1cc2nc(-c3ccc(C(F)F)c(C4CC4)n3)ccc2cn1)c1cc(Br)c2c(c1)S(=O)(=O)[C@@H](F)COC2 [Compound 442]
15.2 | 27.83 | C=C(F)c1cc(C(=O)NCc2cc3nc(-c4cccc(N5C[C@@H](C)O[C@@H](C)C5)n4)ccc3cn2)cc2c1OCC[C@H](F)S2(=O)=O [Compound 443]
